Data: patent US11028127B2, “Peptides capable of reactivating p53 mutants” (Yeda Research and Development Co. Ltd., priority 2013, dated 2021)

System: Mut-p53
Assay: Total activity score over combined assays (Table 8)
Parameters: scale not given here
Settings: for Activity Score: Table 10 summary of activity of the peptides tested; for AS (Activity Score): total score of Table 7
Description: Several alternative and complementary methods to screen lead peptide candidates for conformational and functional effects on Mut-p53 were employed. For increased penetration of peptide across cell membranes each peptide contains 3-6 Arginine residues either as part of its sequence or added either at its N-terminus or its C-terminus. […] In-vitro based assays for evaluation were first performed, such as ELISA for assessment of p53 conformation and sequence-specific DNA binding of p53.

Row | Substance | Activity Score | AS (Activity Score)
1 | pCAP1 (EVTFRHSVV) | 32 | 32
2 | pCAP2 (VWVHDSCHANLQNYRNYLLP) | 2 | 2
3 | pCAP3 (FWTQSIKERKMLNEHDFEVR) | 12 | 12
4 | pCAP4 (EHDFEVRGDVVNGRNHQGPK) | 2 | 2
5 | pCAP5 (LEVIYMI) | 2 | 2
6 | pCAP6 (LGIDEDEETETAPE) | 5 | 5
7 | pCAP7 (SPLQTPAAPGAAAGPALSPV) | 6 | 6
8 | pCAP9 (TIIHREDEDEIEW) | 17 | 17
9 | pCAP10 (VAEFAQSIQSRIVEWKERLD) | 8 | 8
10 | pCAP11 (EWKERLDKEFSLSVYQKMKF) | 16 | 16
11 | pCAP12 (GGGGGGGGGGGG) | 0 | 0
12 | pCAP13 (HFSHHLK) | 4 | 4
13 | pCAP14 (HHFSHHWKT) | 9 | 9
14 | pCAP15 (THFSHHLKH) | 12 | 12
15 | pCAP16 (LPNPPERHH) | 24 | 24
16 | pCAP17 (LHSKTLVL) | 23 | 23
17 | pCAP18 (SHQVHTHHNN) | 6 | 6
18 | pCAP19 (NPNTYVPHWMRQ) | 0 | 0
19 | pCAP20 (HHPWTHHQRWS) | 13 | 13
20 | pCAP21 (NHPWQFPNRWTV) | 29 | 29
21 | pCAP22 (SLLIGFGIIRSR) | 5 | 5
22 | pCAP23 (IRILMFLIGCGR) | 22 | 22

Row | Substance | Activity Score | AS (Activity Score)
23 | pCAP24 (LRCLLLLIGRVG) | 23 | 23
24 | pCAP25 (YRRLLIGMMW) | 0 | 0
25 | pCAP26 (DEFHSFYTARQTG) | 0 | 0
26 | pCAP27 (VHEVTHHWL) | 5 | 5
27 | pCAP28 (HTDSHPHHHHPH) | 24 | 24
28 | pCAP29 (KPDSPRV) | 0 | 0
29 | pCAP30 (TIHPSIS) | 16 | 16
30 | pCAP31 (PPYSQFLQWYLS) | 0 | 0
31 | pCAP32 (TSPLQSLK) | 4 | 4
32 | pCAP33 (SILTLRLRRLRR) | 16 | 16
33 | pCAP34 (SILTLSRIVLGWW) | 14 | 14
34 | pCAP35 (GAMHLPWHMGTL) | 28 | 28
35 | pCAP36 (YPTQGHLR) | 39 | 39
36 | pCAP37 (KLQVPIK) | 6 | 6
37 | pCAP38 (WTLSNYL) | 2 | 2
38 | pCAP39 (DSLHSTY) | 2 | 2
39 | pCAP41 (WHHRQQIPRPLE) | 2 | 2
40 | pCAP42 (MHPPDWYHHTPKH) | 29 | 29
41 | pCAP43 (TDSHSHH) | 15 | 15
42 | pCAP44 (VPHIHEFT) | 16 | 16
43 | pCAP45 (HDTHNAHVG) | 0 | 0
44 | pCAP46 (ASWQALALYAAGW) | 34 | 34
